Reference: patent publication US20240270801A1, “EPITOPE PEPTIDE OF HUMAN ALPHA-SYNUCLEIN AND PHARMACEUTICAL COMPOSITION INCLUDING SAID PEPTIDE” (Sumitomo Pharma Co., Ltd., priority 2021, published 2024)
Non-standard residues stand in square brackets, D forms with d. No end group written: not given here. Ahx = NCCCCCC(=O)O

Key:
aggregated human αSyn = test: Antibody-inducing ability in mice: ELISA antibody titer of immune serum with respect to aggregated human αSyn; type: in vivo, mouse; conditions: for Antibody titer with respect to aggregated human αSyn (N = 4 − 6, mean ± standard deviation): Example 2, serum 2 weeks after second administration; for Antibody-inducing ability regarding the aggregated human αSyn (in words): Example 2, balb/c mice; for Antibody titer with respect to aggregated human αSyn, relative to control: mice
Procedure: (§1) Using the various AJ peptide-human αSyn peptide conjugates produced in Example 1, an antibody-inducing ability with respect to human αSyn in mice was evaluated. The various AJ-human αSyn peptide conjugates (250 μg/mouse) or KLH-DMPVDPDN (25 μg/mouse) in physiological saline were intramuscularly administered to balb/c mice (females, 6 weeks old, CLEA Japan, Inc.) twice at a 2-week interval for immunization using aluminum hydroxide (Alum) (InvivoGen, 50 μg/mouse) as an adjuvant. As a negative control, physiological saline (100 μL/mouse) comprising the same amount of aluminum hydroxide was administered twice. Two weeks after the second administration, serum was recovered to evaluate the antibody titer with respect to human αSyn by ELISA.
(§2) ELISA was performed by the following method. 96-well plates were coated with human αSyn (Sigma) at 0.2 μg/well. After washing with PBST (Phosphate Buffered Saline comprising 0.05% Tween) once, blocking was performed with 3% skim milk (FUJIFILM Wako Pure Chemical Corporation). After washing with PBST three times, diluted serum was added to cause a reaction at room temperature for 1 hour. Furthermore, after washing with PBST three times, Goat anti-mouse IgG-HRP (abcam) was added to cause a reaction at room temperature for 1 hour. After washing with PBST three times, SureBlue TMB Microwell Peroxidase Substrate (KPL) was added to cause a reaction at room temperature for 10 minutes while light shielding. An equal volume of a TMB Stop Solution (KPL) was added to stop the reaction, and the absorbance at 450 nm was measured. ELISA with respect to aggregated human αSyn was performed by coating with the aggregated human αSyn (Stress Marq) at 15 ng/well instead of human αSyn in the above-mentioned method.
The antibody-inducing ability of the AJ-human αSyn peptide conjugates (AJ-p54, AJ-p54-KLH, and AJ-DMPVDPDN) produced in Example 1 with respect to human αSyn and aggregated human αSyn in mice was evaluated. Physiological saline or the AJ-human αSyn peptide conjugate (250 μg/mouse) was intramuscularly administered to balb/c mice (females, 6 weeks old, CLEA Japan, Inc.) twice at a 2-week interval using Alum (InvivoGen, 50 μg/mouse) as an adjuvant. Furthermore, KLH-DMPVDPDN (25 μg/mouse) was administered using Alum (InvivoGen, 50 μg/mouse) as an adjuvant. Two weeks after the second administration, serum was recovered to evaluate the antibody titer by ELISA. ELISA was performed by the method described in Example 2.
The antibody-inducing ability of the produced various human αSyn peptide conjugates with respect to human αSyn and aggregated human αSyn in the mice was evaluated by the method described in Example 2 using the antibody titers with respect to human αSyn and aggregated human αSyn of the mouse immune serum. […] In Table 6, the antibody titer of AJ-p242, AJ-p244, AJ-p347, or AJ-p361 is shown with the antibody titer of AJ-p150 as a control being 1 (logarithm). In addition, the antibody titers of AJ-p229, AJ-p237, and AJ-p298 are shown with the antibody titer of AJ-p54 as a control being 1 (logarithm).
The antibody-inducing ability of the AJ-human αSyn peptide conjugates with a modified linker with respect to human αSyn and aggregated human αSyn in the mice was evaluated using the antibody titers with respect to human αSyn and aggregated human αSyn of the mouse immune serum. […] In Table 8, the antibody titers of the AJ-human αSyn peptide conjugates with various modified linkers comprising p54 are shown with the antibody titer of AJ-p54 as a control being 1 (logarithm). In addition, the antibody titers of the AJ-human αSyn peptide conjugates with various modified linkers comprising p150 are shown with the antibody titer of AJ-p150 as a control being 1 (logarithm).

human αSyn = test: Antibody-inducing ability in mice: ELISA antibody titer of immune serum with respect to human αSyn; type: in vivo, mouse; design: key to Antibody titer with respect to human αSyn, relative to control: log titer relative to control conjugate (control = 1); conditions: for Antibody titer with respect to human αSyn (N = 4 − 6, mean ± standard deviation): Example 2, serum 2 weeks after second administration; for Antibody titer compared with control conjugate (in words): Example 9, mice, human αSyn and aggregated human αSyn, control AJ-p150 or AJ-p54
Procedure: as §1
as §2, with “above-mentioned method. […]” for “above-mentioned method.”
The antibody-inducing ability of the produced various human αSyn peptide conjugates with respect to human αSyn and aggregated human αSyn in the mice was evaluated by the method described in Example 2 using the antibody titers with respect to human αSyn and aggregated human αSyn of the mouse immune serum. […] In Table 6, the antibody titer of AJ-p242, AJ-p244, AJ-p347, or AJ-p361 is shown with the antibody titer of AJ-p150 as a control being 1 (logarithm). In addition, the antibody titers of AJ-p229, AJ-p237, and AJ-p298 are shown with the antibody titer of AJ-p54 as a control being 1 (logarithm). […]

[1] = balb/c mice, i.m. twice at 2-week interval, Alum, AJ conjugates 250 μg/mouse, KLH-DMPVDPDN 25 μg/mouse
[2] = Example 4, balb/c mice, i.m. twice at 2-week interval, Alum, AJ conjugates 250 μg/mouse, KLH-DMPVDPDN 25 μg/mouse
[3] = Example 9, N = 4, titer of AJ-p150 or AJ-p54 as control being 1 (logarithm)
[4] = Example 9, mice, N = 4, titer of AJ-p150 or AJ-p54 as control being 1 (logarithm)
[5] = Example 10, modified linker, titer of AJ-p54 or AJ-p150 as control being 1 (logarithm)
[6] = Example 10, modified linker, mice, titer of AJ-p54 or AJ-p150 as control being 1 (logarithm)

Substance	Antibody titer with respect to aggregated human αSyn (N = 4 − 6, mean ± standard deviation) (aggregated human αSyn; [1])	Antibody titer with respect to human αSyn (N = 4 − 6, mean ± standard deviation) (human αSyn; [1])	Antibody titer with respect to aggregated human αSyn, relative to control (aggregated human αSyn; [5])	Antibody titer with respect to human αSyn, relative to control (human αSyn; [6])	other results
ELKLIFLHRLKRLRKRLKRKXKKDQLGANE (ELKLIFLHRLKRLRKRLKRK[Ahx]KKDQLGANE) [AJ-p142]	576 ± 732	4693 ± 6431			
ELKLIFLHRLKRLRKRLKRKXKKDQLGKND (ELKLIFLHRLKRLRKRLKRK[Ahx]KKDQLGKND) [AJ-p233]	555 ± 377	1323 ± 1505			
ELKLIFLHRLKRLRKRLKRKXKKDQLGKNE-C-KLH (not fully specified; C-terminal Cys linked to KLH) [AJ-p54-KLH, KLH-modified AJ-human αSyn peptide conjugate, KLH linked via cysteine to the C-terminal]					Induction of the antibody to aggregated human αSyn (in words) (aggregated human αSyn; Example 4, balb/c mice): induced; Antibody titer with respect to aggregated human αSyn (mean ± standard deviation) (aggregated human αSyn; [2]): 640 ± 314; Induction of the antibody to human αSyn (in words) (human αSyn; Example 3, mice): induced to the same extent; Antibody titer (N = 4 − 6, mean ± standard deviation) with respect to human αSyn (human αSyn; Example 3, mice, same manner as Example 2): 1621 ± 681; Induction of the antibody to human αSyn (in words) (human αSyn; Example 4, balb/c mice): induced; Antibody titer with respect to human αSyn (mean ± standard deviation) (human αSyn; [2]): 1621 ± 681
ELKLIFLHRLKRLRKRLKRKXKKDQLGKNEE (ELKLIFLHRLKRLRKRLKRK[Ahx]KKDQLGKNEE) [AJ-p167]	1664 ± 1409	2389 ± 1399			Antibody-inducing ability regarding the aggregated human αSyn (in words) (aggregated human αSyn): particularly strong antibody-inducing ability
ELKLIFLHRLKRLRKRLKRKXKKNQLGKND (ELKLIFLHRLKRLRKRLKRK[Ahx]KKNQLGKND) [AJ-p272]	1536 ± 1724	4096 ± 2896			Antibody-inducing ability regarding the aggregated human αSyn (in words) (aggregated human αSyn): particularly strong antibody-inducing ability
ELKLIFLHRLKRLRKRLKRKXKKNQLGKNE (ELKLIFLHRLKRLRKRLKRK[Ahx]KKNQLGKNE) [AJ-p237]					Antibody titer with respect to aggregated human αSyn, relative to control (aggregated human αSyn; [3]): 0.95; Antibody titer compared with control conjugate (in words) (human αSyn): same level of an antibody titer; Antibody titer with respect to human αSyn, relative to control (human αSyn; [4]): 0.91
ELKLIFLHRLKRLRKRLKRKXKKTQLGKNE (ELKLIFLHRLKRLRKRLKRK[Ahx]KKTQLGKNE) [AJ-p229]					Antibody titer with respect to aggregated human αSyn, relative to control (aggregated human αSyn; [3]): 1.02; Antibody titer compared with control conjugate (in words) (human αSyn): same level of an antibody titer; Antibody titer with respect to human αSyn, relative to control (human αSyn; [4]): 0.92
ELKLIFLHRLKRLRKRLKRKXKRDQLGKNE (ELKLIFLHRLKRLRKRLKRK[Ahx]KRDQLGKNE) [AJ-p227]	3072 ± 2748	4267 ± 3200			Antibody-inducing ability regarding the aggregated human αSyn (in words) (aggregated human αSyn): particularly strong antibody-inducing ability
ELKLIFLHRLKRLRKRLKRKαKEAYEMPSEE [AJ-αK-p150]			1.05	0.95	
ELKLIFLHRLKRLRKRLKRKαKKKDQLGKNE [AJ-αK-p54]			0.92	0.99	
ELKLIFLHRLKRLRKRLKRKϵKEAYEMPSEE [AJ-εK-p150]			0.86	0.82	
ELKLIFLHRLKRLRKRLKRKϵKKKDQLGKNE [AJ-εK-p54]			0.81	0.70	
ELKLIFLHRLKRLRKRLKRKϵKKKEAYEMPSEE [AJ-εKKK-p150]			0.90	0.79	
ELKLIFLHRLKRLRKRLKRKϵKKKKEAYEMPSEE [AJ-εKKKK-p150]			1.00	0.97	
ELKLIFLHRLKRLRKRLKRKϵKKKKKDQLGKNE [AJ-εKKK-p54]			0.88	0.74	
ELKLIFLHRLKRLRKRLKRKϵKKKKKKDQLGKNE [AJ-εKKKK-p54]			0.90	0.77	
